Results as given in US4758586A, “Indolyl compounds and hyposensitivity use thereof” (USV Pharmaceutical Corp., priority 1986, dated 1988).
Where two headings read alike, the source gives them in different places. Values belong to the molecule of their own block, whether it stands above or below them.

Key:
[1] = test system: leukotriene C4 -induced contraction of guinea pig peripheral strips; assay: SRS-A antagonists (SALTI): leukotriene C4-induced contraction of guinea pig peripheral lung strips
Experimental: Protocol for SRS-A (Slow-reacting Substance of Anaphylaxis Antagonists (SALTI)
Peripheral strips of guinea pig lungs are prepared and hung in tissue baths (Metro #ME-5505, 10 ml) according to the published procedure (Pro. Nat'l. Acad. Sci., U.S.A. Volume 77, pp. 4354-4358, 1980). The strips are thoroughly rinsed in Assay Buffer and then connected with surgical silk thread to the support rods from the tissue baths. The rods are adjusted in the baths and the strips connected to the pressure transducers (Grass FT 103 or Gould UC-3). The tissue baths are aerated with 95% oxygen 5% carbon dioxide and maintained at 37° C. The Assay Buffer has been made as follows: For each liter of buffer the following are added to approximately 800 ml of water distilled in glass--6.87 g. NaCl, 0.4 g. KCl, […]. NaHCO3, 0.14 g. NaH2 PO4.H2 O, 0.21 g. MgSO4.7H2 O, and 2.0 g. D-glucose. Then a solution of 0.368 g. CaCl2.2H2 O in 100 ml glass-distilled water is slowly added to the buffer. Sufficient water is added to adjust the volume to one liter, and the solution is aerated with 95% oxygen--5% carbon dioxide. Usually 10 liters of buffer are used for an experiment with 4 tissues.
After the tissues have been repeatedly washed and allowed to equilibrate in the tissue bath, they are challenged with 1 μM histamine. After maximum contractions have been obtained, the tissues are washed, and allowed to relax back to baseline tension. This histamine challenge procedure is repeated at least 1 to 2 more times to obtain a repeatable control response. The average response to 1 μM histamine for each tissue is used to normalize all other challenges.
Responses of each tissue to a predetermined concentration of leukotriene are then obtained. Usually test compounds are examined initially at 30 μM on resting tension of the tissues without any added agonist or antagonist to determine if the compound has any possible intrinsic activity. The tissues are washed, and the test compound is added again. Leukotriene is added after the desired pre-incubation time. The intrinsic activity of the compounds, and their effect on leukotriene-induced contractions are then recorded.
The concentration required for 50% inhibition of 0.2 μM leukotriene C4 -induced contraction of guinea pig peripheral strips for representative compounds of the present invention is shown in Table 3.

Phospholipase A2 (PLA2) = target: T1, Phospholipase A2 (PLA2) (Rattus norvegicus, UniProt P14423); assay: In vitro assay for inhibitors of Phospholipase A2 (PLA2) from rat platelets; assay type: biochemical
T1 construct: obtained by aggregation of purified rat platelets; from tissue; host or cells: rat platelets (enzyme obtained by aggregation)
T1 sequence (P14423 22-146): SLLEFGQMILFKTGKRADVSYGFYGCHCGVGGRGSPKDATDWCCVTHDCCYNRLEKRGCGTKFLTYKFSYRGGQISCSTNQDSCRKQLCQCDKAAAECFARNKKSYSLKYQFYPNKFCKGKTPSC
Description: B. In Vitro Assay For Inhibitors of Phospholipase A2 Assayed at pH 7.0 (PLA2)
The PLA2 employed in this screen is obtained by aggregation of purified rat platelets. In the enzyme assay phosphatidylcholine having ^14 C-labeled palmitate residues at R1 and R2 is employed as substrate. PLA2 acts by cleaving the R2 fatty acid ester bond yielding free fatty acid and lysophosphatidyl choline as follows: [drawing 19]
Following completion of the reaction, the assay medium is acidified and extracted with hexane, which takes up unreacted substrate and free fatty acid product. The hexane extract is passed over a short silica column which retains 99% of the phosphatidyl choline. The ^14 C-labeled palmitic acid is not retained (90% recovery in eluate) and is collected directly in scintillation counting vials. The released palmitic acid is conveniently quantitated by liquid scintillation spectrometry.
The compounds were tested at 100 uM in a buffer containing 0.3 mM unlabeled phosphatidylcholine (PC), 20-30,000 cpm of ^14 C(CPC), […], 1 mM CaCl2 and 50 mM tris-HCl adjusted to pH 7.2 with 1N NaOH. […] The temperature of the buffer was maintained at a temperature of 37° C. The reaction was initiated by addition of the enzyme and it was terminated 30 minutes later by the addition of […] of 1N HCl.
Following acidification, the samples were extracted with 2 ml of 2-propanol and 2 ml of hexane, vortexed and allowed to stand until the phases separated. Free fatty acids (FFA) and some unreacted substrate were taken up in the isopropanol-saturated hexane. The hexane phase of the extraction mixture was transferred to a short silica gel column which retained […] but not the FFA. The column effluent was collected directly in scintillation vials. The columns were washed once with an additional 2 ml of hexane. The radio labeled FFA were quantitated by liquid scintillation spectrometry.

5-lipoxygenase = target: T2, 5-lipoxygenase (Rattus norvegicus, UniProt P12527); assay: Protocol for detecting inhibitors of the lipoxygenase pathway (5-HETE formation in rat neutrophils); assay type: cell-based
T2 construct: A suspension of rat neutrophils in buffer; endogenous in cells; host or cells: rat neutrophils (PMN)
T2 sequence (P12527 1-673): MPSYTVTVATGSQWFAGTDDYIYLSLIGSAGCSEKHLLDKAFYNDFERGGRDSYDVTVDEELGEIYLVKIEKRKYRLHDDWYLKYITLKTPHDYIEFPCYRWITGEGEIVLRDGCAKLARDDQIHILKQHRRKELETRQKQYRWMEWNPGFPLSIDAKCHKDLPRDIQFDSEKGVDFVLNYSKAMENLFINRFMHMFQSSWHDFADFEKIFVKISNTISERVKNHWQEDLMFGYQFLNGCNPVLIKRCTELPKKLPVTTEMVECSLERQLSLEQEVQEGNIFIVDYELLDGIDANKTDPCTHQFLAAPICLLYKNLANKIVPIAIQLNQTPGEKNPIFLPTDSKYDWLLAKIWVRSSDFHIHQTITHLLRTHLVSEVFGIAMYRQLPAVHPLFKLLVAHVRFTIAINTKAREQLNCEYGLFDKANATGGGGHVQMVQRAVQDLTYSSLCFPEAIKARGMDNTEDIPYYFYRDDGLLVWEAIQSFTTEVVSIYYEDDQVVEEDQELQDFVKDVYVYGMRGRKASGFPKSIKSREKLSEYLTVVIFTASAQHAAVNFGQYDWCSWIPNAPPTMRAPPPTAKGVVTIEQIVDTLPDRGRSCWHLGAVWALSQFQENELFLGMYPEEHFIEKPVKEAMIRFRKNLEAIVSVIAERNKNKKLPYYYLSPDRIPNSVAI
Experimental: Protocol for Detecting Inhibitors of the Lipoxygenase Pathway
A suspension of rat neutrophils in buffer is incubated for 3 minutes at 30° C. with [^14 C]-arachidonic acid (AA) and Calcium Ionophore A23187. Citric acid (2M) is used to quench the reaction. Following the addition of a trace amount of (^3 H)-5-HETE together with an excess of unlabeled 5-HETE to each tube, the mixture is extracted with chloroform/methanol. The organic layer is washed with dilute acid and an aliquot is transferred to glass tubes and dried. The residue is dissolved in a small volume of chloroform and an aliquot is spotted on silica get TLC sheets, which are developed with an ethyl acetate/isooctane/water acetic acid solvent system. The 5-HETE spots are visualized with iodine, cut out and placed in scintillation vials for counting. After adjusting for the extraction efficiency, the amount (pmole) of [^14 C]-5-HETE in each of the tubes is quantitated. The net pmoles of 5-HETE are obtained by subtracting the pmoles of 5-HETE in the tubes containing […]. The ability of the test compounds to modulate the activity of this enzyme is determined by a decrease or increase in the net amount of 5-HETE produced.

Phospholipase C (PLC) = assay: In vitro assay for inhibitors of Phospholipase C (PLC) from rat platelets; assay type: biochemical; conditions: at level tested (300 u)
Description: A. Protocol For In Vitro Assay For Inhibitors Of Phospholipase C (PLC)
The PLC employed in this screen is obtained by aggregation of purified rat platelets in the presence of CaCl2 and ADP. In the enzyme assay phosphatidylinositol having ^3 H -labeled arachidonate residues at R2 is employed as substrate. PLC acts by cleaving the phosphate ester bond yielding diglyceride as follows: [drawing 18]
Following completion of the reaction, the assay medium is acidified and extracted with hexane which takes up unreacted substrate and diglyceride. The hexane extract is passed over a short silica gel column which retains 99% of the phosphatidylinositol. The ^3 H-labeled diglyceride is not retained […]. The diglyceride is conveniently quantitated by liquid scintillation spectrometry.
The compounds were tested at 300 u in a buffer containing 0.06 mM unlabeled phosphatidylcholine (PC), 20-30,000 cpm of (CPC), 150 mM NaCl, 5 mM CaCl2 and 50 mM tris(hydroxymethyl)methylaminopropanesulfonic acid buffer, adjusted to pH 9.0 with 1N NaOH. The temperature of the buffer was maintained at a temperature of 37° C. The reaction was initiated by addition of the enzyme and it was terminated 10 minutes later by addition of 1 ml of 1N HCl.
Following acidification, the samples were extracted with 2 ml of isopropyl alcohol and 2 ml of hexane, vortexed and allowed to stand until the phases separate. […] and some unreacted substrate were taken up in the isopropanol-saturated hexane. The hexane phase of the extraction mixture was transferred to a short silica gel column which retains unreacted phosphatidylinositol, but not the 3H-diglyceride. The column effluent was collected directly in scintillation vials. The columns were washed once with additional 2 ml of hexane. The radiolabelled diglycerides were quantitated by liquid scintillation.

[2] = Cavia porcellus, leukotriene-induced contraction, read-out: SALTI I50 (Table 5)
[3] = Formula III, n=1 compounds, read-out: LOX I50 (Table 5)
[4] = rat PMN, [14C]-arachidonic acid + A23187, 5-HETE, read-out: LOX, (RAT PMN) I50
[5] = read-out: PLA2, inhibition level reached at 30 μM (Ixx = 30 μM)
[6] = Cavia porcellus, 0.2 μM leukotriene C4-induced contraction, read-out: SALTI, I50 μM

- IC50 [1, 2]: 20 µM
SMILES: Cc1c(C=CC(=O)O)c2ccccc2n1Cc1ccccc1 [B-(1-Benzyl-2-methyl-indol-3-yl)acrylic acid]

- IC50 (5-lipoxygenase; [4]): 10 µM
SMILES: CCOC(=O)C=CC=Cc1cn(Cc2ccccc2)c2ccccc12 [Example 1, Ethyl 5-(1-Benzylindol-3-yl)-2,4-Pentadienoate]

- IC50 (5-lipoxygenase; [4]): 2 µM
SMILES: CCOC(=O)c1ccc(NC(=O)C=CC=Cc2cn(Cc3ccccc3)c3ccccc23)cc1 [Example 3, N-(4-Carbethoxyphenyl)-5-(1-benzylindol-3-yl)-2,4-Pentadienamide]

- IC50 (5-lipoxygenase; [4]): 2 µM
SMILES: O=C(O)C=CC=Cc1cn(Cc2ccccc2)c2ccc(OCc3ccccc3)cc12 [Example 5, 5-(1-Benzyl-5-Benzyloxyindol-3-yl)-2,4-Pentadienoic Acid]

- IC50 (5-lipoxygenase; [4]): 4 µM
SMILES: CCOC(=O)C=CC=Cc1cn(Cc2ccccc2)c2ccc(OC)cc12 [Example 6, Ethyl 5-(1-Benzyl-5-Methoxyindol-3-yl)-2,4-Pentadienoate]

- IC50 (5-lipoxygenase; [4]): 15 µM
SMILES: CCOC(=O)C=CC=Cc1c(C)n(Cc2ccccc2)c2ccccc12 [Example 11, Ethyl 5-(1-Benzyl-2-methylindol-3yl)-2,4-Pentadienoate]

- IC50 (5-lipoxygenase; [4]): 7.5 µM
SMILES: OCC=Cc1cn(Cc2ccccc2)c2ccccc12 [Example 13, 1-Benzyl-3-(3-Hydroxy-1-Propen-1-yl)Indole]

Second part, the molecule before the results:

SMILES: O=C(O)C=Cc1cn(Cc2ccccc2)c2ccccc12 [B-(1-Benzylindol-3-yl)acrylic acid]
- inhibition at 30 µM (Phospholipase A2 (PLA2); read-out: PLA2, inhibition level reached at 30 μM (printed I44 = 30 μM, Table 5)): 44%

SMILES: CCOC(=O)C=Cc1c(C)n(Cc2ccccc2)c2ccccc12 [Ethyl B-(1-benzyl-2-methyl-indol-3-yl)acrylate]
- IC50 (5-lipoxygenase; [3]): 1 µM
- PLC activity class (Table 5) (Phospholipase C (PLC)): I

SMILES: CCOC(=O)C=Cc1cc2ccccc2[nH]1 [Ethyl B-(indol-2-yl)acrylate]
- IC50 [1, 2]: 30 µM
- PLC activity class (Table 5) (Phospholipase C (PLC)): I

SMILES: CCOC(=O)C=Cc1c[nH]c2ccccc12 [Ethyl β-(indol-3-yl)acrylate, reference compound]
- IC50 (5-lipoxygenase; [3]): 8 µM
- PLA2 activity class (Table 5) (Phospholipase A2 (PLA2); at level tested (100 uM)): I
- PLC activity class (Table 5) (Phospholipase C (PLC)): I

SMILES: CCOC(=O)C=Cc1cn(Cc2ccccc2)c2ccccc12 [Ethyl-B-(benzylindol-3-yl)acrylate, reference compound]
- SALTI activity class (Table 5) ([1]; at level tested (initially 30 μM)): I

SMILES: O=C(O)C=CC=Cc1cn(Cc2ccccc2)c2ccccc12 [Example 2, 5-(1-Benzylindol-3-yl)-2,4-Pentadienoic Acid]
- IC50 (5-lipoxygenase; [4]): 2 µM
- IC50 (Phospholipase A2 (PLA2)): 16 µM

SMILES: CCOC(=O)C=CC=Cc1cn(Cc2ccccc2)c2ccc(OCc3ccccc3)cc12 [Example 4, Ethyl 5-(1-Benzyl-5-Benzyloxyindol-3-yl)-2,4-Pentadienoate]
- inhibition at 30 µM (Phospholipase A2 (PLA2); [5]): 37%

SMILES: COc1ccc2c(c1)c(C=CC=CC(=O)O)cn2Cc1ccccc1 [Example 7, 5-(1-Benzyl-5-methoxyindol-3-yl)-2,4-Pentadienoic Acid]
- IC50 (5-lipoxygenase; [4]): 6 µM
- IC50 [1, 6]: 20 µM
- inhibition at 30 µM (Phospholipase A2 (PLA2); [5]): 42%

SMILES: CCOC(=O)C=CC=Cc1c[nH]c2ccccc12 [Example 10, Ethyl 5-(indol-3-yl)-2,4-Pentadienoate]
- IC50 (5-lipoxygenase; [4]): 12 µM
- IC50 [1, 6]: 2 µM

SMILES: CCOC(=O)C=CC=Cc1cc2cc(OC)ccc2[nH]1 [Example 16, Ethyl 5-(5-methoxyindol-2-yl)-2,4-Pentadienoate]
- IC50 (5-lipoxygenase; [4]): 10 µM
- inhibition at 30 µM ([1]; Cavia porcellus, at 30 μM, 0.2 μM leukotriene C4-induced contraction, read-out: SALTI, % I at 30 μM): 53%

SMILES: CCOC(=O)C=CC=Cc1cc2cc(OC)ccc2n1C(=O)c1ccc(Cl)cc1 [Example 17, Ethyl 5-(1-p-chlorobenzoyl-5-methoxyindol-2-yl)-2,4-Pentadienoate]
- IC50 (5-lipoxygenase; [4]): 10 µM
